Tests used:
[1] = target: T1, GABAA α1 receptors (α1β2γ2) (Homo sapiens, UniProt P14867+P18507); experiment: GABA-gated Cl- current in Xenopus oocytes expressing GABAA α1β2γ2 (TEVC), off-target activity; type: cell-based; conditions: concentration response 0.01-100 μM; FIGS. 1(A)-(D)
T1 construct: expressed in transfected cells; host or cells: Xenopus laevis oocytes injected with cDNAs
T1 sequence (P14867 28-456): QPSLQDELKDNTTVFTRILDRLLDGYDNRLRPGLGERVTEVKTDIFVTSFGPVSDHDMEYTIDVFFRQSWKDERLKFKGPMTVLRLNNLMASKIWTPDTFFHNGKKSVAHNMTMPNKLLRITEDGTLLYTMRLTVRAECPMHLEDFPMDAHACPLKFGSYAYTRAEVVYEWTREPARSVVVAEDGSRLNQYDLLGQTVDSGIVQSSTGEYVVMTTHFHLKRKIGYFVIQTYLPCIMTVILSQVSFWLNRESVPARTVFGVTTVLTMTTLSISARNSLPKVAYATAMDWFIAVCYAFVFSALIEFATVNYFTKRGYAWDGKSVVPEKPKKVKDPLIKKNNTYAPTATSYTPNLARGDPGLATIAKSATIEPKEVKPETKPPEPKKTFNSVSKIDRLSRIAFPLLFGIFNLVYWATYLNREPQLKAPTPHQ
T1 sequence (P47870 25-512 partner limits assumed): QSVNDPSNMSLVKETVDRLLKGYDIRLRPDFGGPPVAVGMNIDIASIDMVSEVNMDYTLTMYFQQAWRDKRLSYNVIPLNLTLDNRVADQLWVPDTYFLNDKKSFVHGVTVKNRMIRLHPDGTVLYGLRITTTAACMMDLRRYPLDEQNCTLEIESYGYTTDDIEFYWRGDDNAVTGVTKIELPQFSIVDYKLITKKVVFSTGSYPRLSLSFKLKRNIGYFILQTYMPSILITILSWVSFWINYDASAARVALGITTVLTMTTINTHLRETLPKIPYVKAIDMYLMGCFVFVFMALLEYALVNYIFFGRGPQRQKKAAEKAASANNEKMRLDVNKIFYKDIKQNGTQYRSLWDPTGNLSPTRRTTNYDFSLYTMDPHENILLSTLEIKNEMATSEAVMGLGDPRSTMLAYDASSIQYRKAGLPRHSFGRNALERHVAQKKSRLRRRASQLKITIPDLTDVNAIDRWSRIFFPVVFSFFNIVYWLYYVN
T1 sequence (P18507 40-467 limits assumed): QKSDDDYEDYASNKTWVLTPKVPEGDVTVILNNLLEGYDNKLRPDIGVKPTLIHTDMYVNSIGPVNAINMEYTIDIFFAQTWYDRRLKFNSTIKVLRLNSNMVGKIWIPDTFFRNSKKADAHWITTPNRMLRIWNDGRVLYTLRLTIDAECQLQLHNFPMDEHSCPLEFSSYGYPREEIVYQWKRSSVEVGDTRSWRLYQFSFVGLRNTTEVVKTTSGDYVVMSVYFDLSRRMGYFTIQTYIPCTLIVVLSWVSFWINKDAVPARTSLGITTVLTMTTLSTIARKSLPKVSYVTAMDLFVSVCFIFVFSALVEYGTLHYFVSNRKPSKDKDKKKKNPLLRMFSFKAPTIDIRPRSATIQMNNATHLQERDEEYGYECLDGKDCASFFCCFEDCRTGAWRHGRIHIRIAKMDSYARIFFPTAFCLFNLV
Description: (§1) Step 1: Establish Clones of GABAAR Subunits (α5, β3, γ2, α1, α2 and α3) and Prepare the Corresponding cRNAs: Human clones of GABAA-R α5, β3, γ2, α1, α2 and α3 subunits are obtained from commercial resources (e.g., OriGene, http://www.origene.com and Genescript, http://www.genescript.com). These clones are engineered into pRC, pCDM, pcDNA, and pBluescript KSM vector (for oocyte expression) or other equivalent expression vectors. Conventional transfection agents (e.g., FuGene, Lipofectamine 2000, or others) are used to transiently transfect host cells.
Xenopus oocytes were isolated according to previously published procedures (see, e.g., Goldin et al. Methods Enzymol. 207:266-279 (1992)). The isolated Xenopus oocytes were injected with GABAAR cDNAs (1:1:1 ratio for a total volume of 1 ng of α1βγ2 or α5β3γ2) cloned into mammalian expression vectors. In particular, α1, β2, γ2 were cloned into pcDNA3.1. and α5 and β3 were cloned into pcDNA3.1 myc-His. Vectors were verified by partial sequencing (DNA Core Facility, University of Southern California, USA). After injection, oocytes were stored in incubation medium (Modified Barth's Saline (MBS) supplemented with 2 mM sodium pyruvate, 0.5 mM theophylline and 50 mg/L gentamycin), in petri dishes (VWR, San Dimas, Calif.). All solutions were sterilized by passage through 0.22 μM filters. […] Oocytes were used in experiments for up to 5 days after injection.
A high-throughput two-electrode voltage clamp (TEVC) system (OpusXpress A6000; Molecular Devices, Union City, Calif.), which automates the impalement of oocytes, fluid delivery and current recording from 8 oocytes in parallel, was used to carry out all electrophysiological recordings.
Xenopus Oocytes expressing GABAA-R α5β3γ2 or α1β2γ2 subtype, as prepared in section (A) above, were placed in 8 chambers of OpusXpress and perfused by MBS at 3 mL/min. Glass electrodes back-filled with 3 M KCl (0.5-3 megaohms) were used. Membrane potential of oocytes was voltage-clamped at −60 mV. Oocytes with holding current larger than 0.5 μA were discarded.
Data for each experimental point were obtained from 4 or more Xenopus oocytes and from at least two different frogs. The n refers to the number of Xenopus oocytes tested. Results are expressed as mean±SEM. […] Prism (GraphPAD Software, San Diego, Calif.) and Excel were used to perform curve fitting and statistical analyses.

[2] = target: T2, GABAA α5β3γ2 subtype receptor (Homo sapiens, UniProt P18507+P31644); experiment: GABA-gated Cl- current potentiation in Xenopus oocytes expressing GABAA α5β3γ2 (TEVC); type: cell-based
T2 construct: myc-His (vector-encoded); expressed in transfected cells; host or cells: Xenopus laevis oocytes injected with cDNAs
T2 sequence (P31644 32-462): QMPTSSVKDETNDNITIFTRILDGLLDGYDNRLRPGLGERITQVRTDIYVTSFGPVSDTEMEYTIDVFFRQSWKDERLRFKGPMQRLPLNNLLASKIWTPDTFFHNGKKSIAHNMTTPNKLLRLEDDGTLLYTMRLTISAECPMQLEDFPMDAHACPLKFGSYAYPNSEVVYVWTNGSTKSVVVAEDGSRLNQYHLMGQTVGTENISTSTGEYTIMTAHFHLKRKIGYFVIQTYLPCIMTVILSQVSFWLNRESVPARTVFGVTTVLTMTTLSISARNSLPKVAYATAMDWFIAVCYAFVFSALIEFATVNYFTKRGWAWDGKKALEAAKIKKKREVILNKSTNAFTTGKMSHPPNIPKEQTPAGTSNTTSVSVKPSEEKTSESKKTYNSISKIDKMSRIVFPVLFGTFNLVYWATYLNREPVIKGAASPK
T2 sequence (P28472 26-473 partner): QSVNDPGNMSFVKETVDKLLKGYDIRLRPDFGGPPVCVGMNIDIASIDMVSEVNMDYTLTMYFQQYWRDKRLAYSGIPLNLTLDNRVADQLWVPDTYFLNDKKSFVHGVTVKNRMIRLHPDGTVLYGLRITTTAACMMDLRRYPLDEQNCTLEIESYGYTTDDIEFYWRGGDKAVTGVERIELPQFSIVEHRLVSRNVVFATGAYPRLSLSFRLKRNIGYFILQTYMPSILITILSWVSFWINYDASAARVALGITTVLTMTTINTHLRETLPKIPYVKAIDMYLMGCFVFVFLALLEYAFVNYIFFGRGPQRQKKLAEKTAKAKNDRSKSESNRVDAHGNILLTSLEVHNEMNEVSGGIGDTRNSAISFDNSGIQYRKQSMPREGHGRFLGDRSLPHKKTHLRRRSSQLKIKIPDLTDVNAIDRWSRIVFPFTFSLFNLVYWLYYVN
T2 sequence (P18507 40-467 limits assumed): T1 sequence (P18507 40-467 limits assumed)
Description: as §1
Adult female Xenopus laevis frogs were purchased from Nasco (Fort Atkinson, Wis.). […] All chemicals used were of reagent grade. […] Stock solutions of Diazepam, Flumazenil and compounds of the present invention were prepared in dimethyl sulfoxide (DMSO) and then diluted to an appropriate concentration with the extracellular solution just before use. To avoid adverse effects from DMSO exposure, the final concentration of DMSO was not higher than 0.3% (v/v).
Upon conclusion of compound testing and successful washout, a 1.0 μM Diazepam was tested and used for comparative activity on the two GABAAR subtypes.
Other concentrations of the test compound may also be tested following the same protocol.
Results are expressed as mean±SEM.

SMILES: COC(=O)c1coc(-c2c(-c3ccccc3)cnnc2-c2cccc(OC)c2)n1 [Compound 29]
- positive allosteric modulation at GABAA α1 receptors [1]: markedly reduced positive allosteric modulation
- positive allosteric modulation of GABA at GABAA α5 receptors ([2]; concentration response 0.01-100 μM, FIGS. 1(A)-(D)): strong positive allosteric modulation
- activation at 1 µM ([2]; read-out: GABA α5 EC50 % potentiation): 12.3%
